Data: patent US20060148763A1, “Compounds and methods for regulating triglyceride levels” (priority 2005, published 2006)

How the values were obtained:
[1] = test system: serum triglyceride levels; assay: Rabbit hypercholesteremic model (2% cholesterol diet, 7 weeks): serum triglycerides; type: in vivo, Male New Zealand white rabbits
Method: The anti-atherogenic effects of P5P alone and in combination with simvastatin in a rabbit hypercholesteremic model were determined. The study compared the effects of P5P and simvastatin alone and in combination on atherosclerotic lesion formation, lipid profile (total cholesterol, LDL, HDL, triglycerides and oxidized LDL), homocysteine levels and various markers of inflammation (CRP, IL-1β, IL-6, IFN-γ and TNF-α).
Animals—Male New Zealand white rabbits 2.0-3.0 kg.
Animal Feed—The normocholesterol diet is Co-op Complete Rabbit Feed manufactured by Federated Co-operatives Limited (Saskatchewan). The 2% cholesterol diet is Test Diet 0009459 MRab/2% Chol 3/16 manufactured by Purina Mills (USA).
The rabbits were fed the normocholesterol and 2% cholesterol diet ad libitum. All animals received a timothy cube after blood sampling. […]
Group 3: Hypercholesterol diet+P5P 10 mg/kg/day
Group 4: Hypercholesterol diet+simvastatin 5 mg/kg/day
Group 5: Hypercholesterol diet+P5P 10 mg/kg/day+simvastatin 5 mg/kg/day
The rabbits were fed a normocholesterol or hypercholesterol diet for a total of 7 weeks. The normocholesterol rabbits were treated once per day with 1 ml of ethanol and 5 ml of RO water via a nasogastric tube. The hypercholesterol animals were treated once per day with either P5P (10 mg/kg), simvastatin (5 mg/kg) or a combination of P5P and simvastatin (P5P 10 mg/kg; simvastatin 5 mg/kg) via a nasogastric tube. The P5P was dissolved in 5 ml of 0.05 N NaOH so that the pH of the solution is approximately 7. The simvastatin was dissolved in 1 ml of anhydrous ethanol.
Five ml of blood was collected from the marginal ear vein of the rabbits at 0, 2, 4 and 6 weeks. Prior to blood collection the animals were sedated with 1 mg/kg of acepromazine. Following collection, the serum was separated. The serum is aliquoted (500 μl) and frozen at −80° C. until used for the assaying various lipids (total cholesterol, LDL, HDL, triglycerides, oxidized LDL) and cytokines (CRP, IL-1β, IL-6, IFN-γ and TNF-α).
At 7 weeks, the animals were anesthetized and 10 ml of blood was collected. Then the animals were euthanized, and the heart and thoracic aorta removed. The hearts and aortas were frozen in liquid nitrogen or an ethanol dry ice bath and stored at −80° C. until analyzed.
Test Articles—P5P (pyridoxal 5′-phosphate monohydrate) was purchased from Sigma (P82870). Simvastatin is obtained from ACIC Fine Chemicals Inc. Two test compound vials were provided for each animal for each day. The first vial (small) was diluted in 1 ml of anhydrous ethanol. The second vial was diluted in either 5 ml of RO water or 5 ml of 0.05 N NaOH. The diluent for each vial was clearly marked on the vial. The test solutions were prepared fresh each day just before they were administered to the animals. The stock P5P was stored in a refrigerator at 4° C. under low light conditions. The simvastatin was stored following the manufacture recommendations. The individual test vials were stored in a refrigerator at 4° C. under low light conditions.
Test Article(s) Dose, Route of Administration and Duration—The rabbits were treated orally with the drugs, once per day for a total of 7 weeks. The contents of vial one (small; 1 ml) were given to the animals first, followed by the contents of vial 2 (large; 5 ml). The test compound treatments were followed by a 5 ml RO water chaser.

[2] = test system: serum triglyceride (TG); assay: Phase II cross-over study of P5P alone and with lisinopril in hypertensive type 2 diabetic patients: triglycerides; type: in vivo, human; settings: for TG change, 16 wk vs. baseline (b): Lisinopril/P5P therapy, patients with TG ≧1.7 mmol/L; for reduction in serum TG levels vs. baseline: patients with elevated TG (>1.7 mmol/L) at baseline
Method: Objective—A phase II clinical study was conducted to determine the effects of pyridoxal-5′-phosphate in combination with lisinopril on blood pressure and metabolic function in hypertensive patients with type 2 diabetes.
Summary of Study Design—The phase II study was a randomized, parallel group, cross-over, double-blinded to study medication, placebo-controlled comparison of P5P BID at total daily doses of 100, 300, or 1000 mg alone and in combination with 20 mg lisinopril given once daily (QD). In order to protect against antihypertensive and metabolic carry-over effects of lisinopril, all patients were randomized in 2 different treatment sequences. Patients randomized in the first treatment sequence receive an 8-week treatment with lisinopril 20 mg and P5P (or placebo) and then an 8-week treatment with P5P alone (or placebo). Patients randomized in the second treatment sequence receive an 8-week treatment with P5P alone and then an 8-week treatment with lisinopril 20 mg and P5P (or placebo). In each treatment sequence, all patients were randomized to P5P at the different prespecified dosages.
Mean trough sitting and standing BP were measured at each visit. Twenty-four hour ambulatory BP monitoring (ABPM) were performed at Visit 2 prior to randomization (end of washout period) and after week 8 (Visit 5) and week 16 (Visit 8) weeks of active therapy. Laboratory tests were performed at screening (Visit 1), prior to randomization (Visit 2), at week 2 (Visit 3a), week 8 (Visit 5), week 10 (Visit 6a), and at week 16 (Visit 8).
Treatment Plan—Two to Four-week Washout (Baseline) Period. Patients were instructed on the proper procedure for discontinuing their current antihypertensive medications (discontinuation or tapering) according to the manufacturer's label specifications. If a patient's current antihypertensive treatment needed to be tapered earlier, the Investigator complied with the corresponding timelines before randomization. With the exception of any tapering off of prior therapy, if any, no other anti-hypertensive medication was given to the patient during the washout period. Patients continued any existing diabetic treatment with sulfonylureas (tolbutamide, tolazamide, acetohexamide, chlorpropamide and second generation glyburide, glipizide, glimepiride), D-Phenylalanine derivatives, metformin, thiazolidinediones, acarbose, miglitol, and/or insulin throughout the study. Patients received placebo to be taken twice daily during the washout period. Standard diabetic medication was maintained throughout study. The duration of the washout period was two to four weeks, at the discretion of the Investigator taking into consideration whether the patient's blood pressure had stabilized following removal of any prior antihypertensive medication. […]

[3] = hypercholesterol diet, n = 5, P5P 10 mg/kg/day, simvastatin 5 mg/kg/day oral
[4] = rabbits fed the hypercholesterol diet, 7 weeks

Q: `Cc1ncc(COP(=O)(O)O)c(C=O)c1O` [P5P, pyridoxal-5′-phosphate] was tested. Which “average serum triglyceride levels as fraction of the levels observed in the control rabbits” value ([1]; end of the 7 week study period) did it give?
A: about ⅓

Q: And the “Triglycerides, Week 2” value [1, 3]?
A: 1.244 mmol/L

Q: And the “Triglycerides, Week 4” value [1, 3]?
A: 1.530 mmol/L

Q: And the “Triglycerides, Week 6” value [1, 3]?
A: 1.066 mmol/L

Q: And the “Triglycerides, Week 7” value ([1]; hypercholesterol diet, n = 5, P5P 10 mg/kg/day, simvastatin 5 mg/kg/day oral, end of study)?
A: 1.038 mmol/L

Q: What about the “Triglycerides, Week 0” value ([1]; hypercholesterol diet, n = 5, P5P 10 mg/kg/day, simvastatin 5 mg/kg/day oral, start of study) of the same molecule?
A: 1.168 mmol/L

Q: What about the “comparison of serum triglyceride reduction between treatments” value [1, 4] of the same molecule?
A: more effective than simvastatin treatment

Q: What about the “effect on serum triglyceride levels vs untreated control rabbits” value [1, 4] of the same molecule?
A: effective in reducing serum triglyceride levels

Q: What about the “TG change, 16 wk vs. baseline (b)” value ([2]; P5P 300 mg daily (BID)) of the same molecule?
A: −0.70 mmol/L (p = 0.04)b

Q: What about the “reduction in serum TG levels vs. baseline” value ([2]; P5P 300 mg) of the same molecule?
A: about 0.70 mmol/L

Q: And the “TG change, 16 wk vs. baseline (b)” value ([2]; P5P 1000 mg daily (BID))?
A: −0.56 mmol/L (p = 0.12)b

Q: What about the “reduction in serum TG levels vs. baseline” value ([2]; P5P 1000 mg) of the same molecule?
A: about 0.56 mmol/L
